Measurements as given in patent publication US9695155B2, “Herbicidal substituted pyrimidinyloxy benzene compounds” (E. I. DU PONT DE NEMOURS AND COMPANY, priority 2013, dated 2017).

How the values were obtained:
[1] = system: chamomile; assay: Test D preemergence; assay type: in vivo, Matricaria inodora; settings: Tripleurospermum inodorum, pre-emergence, scale 0-100, read-out: Plant response rating, Chamomile
How it was run: (§1)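 Species were sown in silt loam for preemergence treatment, or grown in peat-based medium to the 1–4-leaf stage (2–18 cm) for postemergence sprays. Test chemicals were formulated in a non-phytotoxic solvent mixture with surfactant. After 7–21 days in a controlled environment, plants were rated visually against controls on a 0 (no effect) to 100 (complete control) scale.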

[2] = system: field poppy; assay: Test D postemergence; assay type: in vivo, Papaver rhoeas; settings: Papaver rhoeas, post-emergence, scale 0 to 100 (0 no effect, 100 complete control), read-out: Plant response rating, Field Poppy
How it was run: as §1

[3] = system: Brazilian crabgrass; assay: Test E postemergence; assay type: in vivo, Digitaria horizontalis; settings: Digitaria horizontalis, post-emergence, read-out: Plant response rating, Crabgrass, Brazil
How it was run: (§2)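 Compound in a non-phytotoxic solvent mixture with surfactant was applied preemergence to seeds in silt loam soil, or postemergence to plants 2 to 18 cm tall grown in peat-based potting medium. Plants were kept in a greenhouse for 14 to 21 days, then rated visually against untreated controls on a 0 (no effect) to 100 (complete control) scale.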

[4] = system: bromegrass, downy; assay: Test D preemergence; assay type: in vivo, Bromus tectorum; settings: Bromus tectorum, pre-emergence, scale 0-100, read-out: Plant response rating, Bromegrass, Downy
How it was run: as §1

[5] = system: wild oat; assay: Test D postemergence; assay type: in vivo, Avena fatua; settings: Avena fatua, post-emergence, scale 0 to 100 (0 no effect, 100 complete control), read-out: Plant response rating, Oat, Wild
How it was run: as §1

[6] = system: lambsquarters; assay: Test D preemergence; assay type: in vivo, Chenopodium album; settings: Chenopodium album, pre-emergence, scale 0-100, read-out: Plant response rating, Lambsquarters
How it was run: as §1

[7] = system: cocklebur; assay: Test E preemergence; assay type: in vivo, Xanthium strumarium; settings: for Cocklebur plant response rating: scale 0 to 100 (0 no effect, 100 complete control)
How it was run: as §2

[8] = system: wild mustard; assay: Test D postemergence; assay type: in vivo, Sinapis arvensis; settings: Brassica, post-emergence, scale 0 to 100 (0 no effect, 100 complete control), read-out: Plant response rating, Mustard, Wild
How it was run: as §1

[9] = system: field poppy; assay: Test D preemergence; assay type: in vivo, Papaver rhoeas; settings: Papaver rhoeas, pre-emergence, scale 0-100, read-out: Plant response rating, Field Poppy
How it was run: as §1

[10] = system: spring wheat; assay: Test D postemergence; assay type: in vivo, Triticum aestivum; settings: Triticum aestivum, post-emergence, scale 0 to 100 (0 no effect, 100 complete control), read-out: Plant response rating, Wheat, Spring
How it was run: as §1

[11] = system: winter wheat; assay: Test D postemergence; assay type: in vivo, Triticum aestivum; settings: Triticum aestivum, post-emergence, scale 0 to 100 (0 no effect, 100 complete control), read-out: Plant response rating, Wheat, Winter
How it was run: as §1

[12] = system: field violet; assay: Test D preemergence; assay type: in vivo, Viola arvensis; settings: Viola arvensis, pre-emergence, scale 0-100, read-out: Plant response rating, Field Violet
How it was run: as §1

[13] = system: bromegrass, downy; assay: Test D postemergence; assay type: in vivo, Bromus tectorum; settings: Bromus tectorum, post-emergence, Postemergence, scale 0 to 100 (0 no effect, 100 complete control), read-out: Plant response rating, Bromegrass, Downy
How it was run: as §1

N#Cc1cccc(Oc2ncc(Br)cn2)c1-n1cc(C(F)(F)F)cn1 [Compound 59, 3-[(5-bromo-2-pyrimidinyl)oxy]-2-[4-(trifluoromethyl)-1H-pyrazol-1-yl]benzonitrile]
pest or weed control at 31 g/ha ([1]; 31 g ai/ha): 10%
pest or weed control at 62 g/ha ([1]; 62 g ai/ha): 15%
pest or weed control at 125 g/ha ([1]; 125 g ai/ha): 95%
pest or weed control at 250 g/ha ([1]; 250 g ai/ha): 85%
pest or weed control at 31 g/ha ([2]; 31 g ai/ha): 70%
pest or weed control at 62 g/ha ([2]; 62 g ai/ha): 65%
pest or weed control at 125 g/ha ([2]; 125 g ai/ha): 100%
pest or weed control at 250 g/ha ([2]; 250 g ai/ha): 100%
pest or weed control at 31 g/ha ([3]; Postemergence, 31 g ai/ha, scale 0 to 100): 15%
pest or weed control at 62 g/ha ([3]; Postemergence, 62 g ai/ha, scale 0 to 100): 20%
pest or weed control at 125 g/ha ([3]; Postemergence, 125 g ai/ha, scale 0 to 100): 25%
pest or weed control at 250 g/ha ([3]; Postemergence, 250 g ai/ha, scale 0 to 100): 50%
pest or weed control at 16 g/ha ([3]; postemergence, 16 g ai/ha, scale 0 to 100, 0 no effect, 100 complete control): 15%
pest or weed control at 31 g/ha ([4]; 31 g ai/ha): 0%
pest or weed control at 62 g/ha ([4]; 62 g ai/ha): 0%
pest or weed control at 125 g/ha ([4]; 125 g ai/ha): 10%
pest or weed control at 250 g/ha ([4]; 250 g ai/ha): 40%
pest or weed control at 31 g/ha ([5]; 31 g ai/ha): 25%
pest or weed control at 62 g/ha ([5]; 62 g ai/ha): 30%
pest or weed control at 125 g/ha ([5]; 125 g ai/ha): 35%
pest or weed control at 250 g/ha ([5]; 250 g ai/ha): 50%
pest or weed control at 31 g/ha ([6]; 31 g ai/ha): 95%
pest or weed control at 62 g/ha ([6]; 62 g ai/ha): 100%
pest or weed control at 125 g/ha ([6]; 125 g ai/ha): 95%
pest or weed control at 250 g/ha ([6]; 250 g ai/ha): 100%
Cocklebur plant response rating ([7]; 31 g ai/ha): 0
Cocklebur plant response rating ([7]; 62 g ai/ha): 0
Plant response rating, Cocklebur ([7]; 250 g ai/ha, scale 0 to 100, 0 no effect, 100 complete control): 0
pest or weed control at 31 g/ha ([8]; 31 g ai/ha): 100%
pest or weed control at 62 g/ha ([8]; 62 g ai/ha): 95%
pest or weed control at 125 g/ha ([8]; 125 g ai/ha): 100%
pest or weed control at 250 g/ha ([8]; 250 g ai/ha): 100%
pest or weed control at 31 g/ha ([9]; 31 g ai/ha): 95%
pest or weed control at 62 g/ha ([9]; 62 g ai/ha): 100%
pest or weed control at 125 g/ha ([9]; 125 g ai/ha): 100%
pest or weed control at 250 g/ha ([9]; 250 g ai/ha): 100%
plant injury at 31 g/ha ([10]; 31 g ai/ha): 10%
plant injury at 62 g/ha ([10]; 62 g ai/ha): 15%
plant injury at 125 g/ha ([10]; 125 g ai/ha): 20%
plant injury at 250 g/ha ([10]; 250 g ai/ha): 25%
plant injury at 31 g/ha ([11]; 31 g ai/ha): 10%
plant injury at 62 g/ha ([11]; 62 g ai/ha): 15%
plant injury at 125 g/ha ([11]; 125 g ai/ha): 20%
plant injury at 250 g/ha ([11]; 250 g ai/ha): 20%
pest or weed control at 31 g/ha ([12]; 31 g ai/ha): 65%
pest or weed control at 62 g/ha ([12]; 62 g ai/ha): 85%
pest or weed control at 125 g/ha ([12]; 125 g ai/ha): 100%
pest or weed control at 250 g/ha ([12]; 250 g ai/ha): 100%
pest or weed control at 31 g/ha ([13]; 31 g ai/ha): 20%
pest or weed control at 62 g/ha ([13]; 62 g ai/ha): 20%
pest or weed control at 125 g/ha ([13]; 125 g ai/ha): 25%
pest or weed control at 250 g/ha ([13]; 250 g ai/ha): 30%
